Data from patent US20200368322A1, “METHODS OF IDENTIFYING AND USING AGENTS FOR TREATING DISEASES ASSOCIATED WITH INTESTINAL BARRIER DYSFUNCTION” (Yeda Research and Development Co. Ltd., priority 2018, published 2020).
Entries after “also recorded” stand apart in the source; their conditions may differ.

Columns and labels:
[1] = test system: tight junctions of Caco2 cells; assay: Caco2 tight junction morphology (cingulin or ZO-1 staining, tortuosity); type: cell-based, human; conditions: for recovery of TJ structure on replacement of disruptors with stabilizer: CaCo2 cells pretreated with LPS, histamine or putrescine, even in the presence of the disruptors; for tight junction distortion caused by LPS: 10 mM taurine, 1 mM tryptamine, 10 mM L-homo-serine, in combination with LPS
Description: (§1) CaCo-2 cells were purchased from ATCC. Cells were routinely grown in regular tissue culture medium (DMEM, 10% FCS, penicillin/streptomycin, GlutaMAX). For experiments with differing glucose concentrations, cells were routinely cultured in low-glucose DMEM (1 g/l glucose). Cells were seeded onto 96-well glass-bottom plates coated with either fibronectin or collagen 70 000 cells/well and allowed to grow for 24 hours to form confluent monolayer before indicated treatments.
(§2) For high resolution images of manually selected representative fields, a DeltaVision wide field fluorescent microscope (GE Healthcare) equipped with 40×UPlanFLN or 60×/1.42 PlanApo N oil objective (Olympus) was used. For multi-well plate scanning, the following automated imaging stations were used: DeltaVision microscope with plate scanning regiment, Hermes imaging station (IDEA bio-Medical) or ImagExpress microXL imaging station (Molecular Devices) equipped by 40× air objectives. In all cases in order to cover the curvature of apical surface of epithelial monolayer 5 μm thick z-stack was acquired around the tight junction plane (identified by best focus algorithm) and resulting image was generated as a maximum projection of all optical sections.
Cell images were segmented using Morphological Segmentation ImageJ plug-in and junction tortuosity was calculated as a ratio between junction length and Euclidian distance between its ends.

[2] = test system: focal adhesions of Caco2 cells; assay: Caco2 cell-matrix focal adhesions (paxillin staining); type: cell-based, human
Description: as §1, §2

Caco2 cells [3] = assay: Traction force microscopy; type: cell-based, human; conditions: Caco2 islands on polyacrylamide hydrogels, 24 hours treatment
Description: SoftTrac 6 well plates with pre-made collagen coated 12 kPa hydrogels containing embedded 0.2 μm fluorescent beads were purchased from Matrigen. 200,000 cells per well were plated and allowed to grow for 24 hours to form epithelial islands, treated with the indicated metabolite for another 24 hours and live-imaged using DeltaVision microscope equipped with environmental chamber. After acquisition of cell and fluorescent bead images in steady state conditions, cells were detached with trypsin and imaging of beads was repeated in a relaxed state. Displacement map generation and force calculations were performed using MatLab script described in Butler et al. Am J Physiol Cell Physiol. 2002.

Caco2 cells [4] = conditions: 10 mM histamine
Description: For immunofluorescent staining, cells were permeabilized with 0.5% Triton ×100 in 3% paraformaldehyde for 3 minutes and fixed with 3% paraformaldehyde for an additional 30 minutes. Tight junction labeling was performed with either rabbit anti-cingulin antibodies or with anti-zo1 mouse monoclonal antibodies (BD Transduction Laboratories). Focal adhesions were labeled with either anti-paxillin mouse monoclonal antibodies (BD Transduction Laboratories) or with anti-zyxin rabbit polyclonal antibodies. Adherens junctions were labeled with anti-β-catenin rabbit polyclonal antibodies (Sigma). The following secondary, fluorescently labeled antibodies (Invitrogen) were used: Alexa Fluor 488 goat anti-mouse or anti-rabbit antibodies for tight junction visualization and Alexa Fluor 647 goat anti-mouse or anti-rabbit antibodies for focal adhesions or adherens junctions visualization. Actin was labeled with TRITC-phalloidin (Sigma) and nuclei with DAPI.

Citrobacter rodentium [5] = type: in vivo, mouse; conditions: putrescine plus 30 mg/ml taurine in drinking water
Description: For putrescine treatment, mice received putrescine by oral gavage with a dose of 200 mg/kg twice daily for 10 days prior to and during DSS treatment or Citrobacter rodentium infection.
A kanamycin-resistant and luciferase-expressing derivative of Citrobacter rodentium DBS100 (ICC180) was used for infection as previously described (Thaiss et al., Science. 2018 Mar. 23; 359(6382):1376-1383).
Mice were infected with 200 μl solution containing approximately 1×10^9 colony-forming units (CFU) of overnight cultured bacteria by oral gavage. Infection was monitored by enumerating stool CFU and measuring abdominal bioluminescent. For in vivo bioluminescent imaging, mice were anesthetized and bioluminescence was measured using an IVIS2000 instrument and Living Image software (Perkin Elmer). For ex vivo luminescence quantification, the whole colons were dissected, extensively washed from all luminal contents, longitudinally cut open and immediately imaged. For CFU counts, stool or tissues were collected, weighed and homogenized in sterile phosphate buffered saline (PBS−/−). Homogenates were then serially diluted in PBS−/− and plated on LB kanamycin plates, incubated overnight at 37° C. Bacterial CFUs were counted the next day, normalizing them to the stool or tissue weight.

Citrobacter rodentium [6] = assay: Citrobacter rodentium infection (bioluminescence, tissue CFU), Example 1; type: in vivo, mouse; conditions: STZ-treated mice given the agent (insulin 0.25 U per day; 2-DG i.p. twice daily 5 mg)
Description: (§3) To induce hyperglycemia, streptozotocin (STZ, Sigma-Aldrich) was diluted freshly in PBS and injected i.p. at 100 mg/kg at two consecutive days. Control mice were injected with PBS. Serum glucose measurements were performed using glucose strips (Perrigo). Hyperglycemic mice were used for further experimentation 2-3 weeks after STZ injection). For continuous insulin administration, ALZET osmotic pumps were used. Pumps were implanted subcutaneously in the back of the mice for 4 weeks. Insulin was delivered at 0.25 U/day. 2-deoxyglucose (2-DG) was injected i.p. twice daily at 5 mg per injection as previously described (47). Injections were performed for 10 consecutive days. Leptin antagonist was administered daily by intraperitoneal injection of 25 mg/kg as previously described (18).
Mice were infected by oral gavage with 200 μl of an overnight culture of LB containing approximately 1×10^9 colony-forming units (CFU) of a kanamycin-resistant, luciferase-expressing derivative of C. rodentium DBS100 (ICC180) as previously described (16). For in vivo bioluminescent imaging, mice were anesthetized with Ketamine/Xylazine. Bioluminescence was quantified using an IVIS2000 instrument and Living Image software (Perkin Elmer). For ex vivo luminescence analysis, colons were resected, extensively washed from all fecal matter and immediately imaged. For CFU counts, tissues were collected, weighed and homogenized in 1 ml of sterile PBS. Tissue homogenates were serially diluted in PBS and plated on to LB kanamycin plates, incubated overnight at 37° C., and bacterial colonies were enumerated the following day, normalizing them to the tissue weight.

[7] = test system: microbial pattern recognition receptor (PRR) ligands; assay: Quantification of microbial products at systemic sites (PRR reporter cell lines); type: in vivo, mouse; conditions: STZ-treated mice given the agent (insulin 0.25 U per day; 2-DG i.p. twice daily 5 mg)
Description: as §3, with “(18). The following PRR reporter cell lines were obtained from Invivogen (HEK-Blue TLR and NLR reporter cell lines): TLR2, TLR3, TLR4, TLR5, TLR7, TLR9, NOD1, NOD2. Extracts from spleen, liver, and serum were homogenized and added to reporter cell lines incubated with HEK-Blue detection medium (Invivogen) according to the manufacturer's instructions.” for “(18).”

[8] = Serum glucose measurement; type: in vivo, mouse; conditions: STZ-treated mice, 0.25 U per day insulin via pumps for 4 weeks
Description: as §3

[9] = test system: intestinal epithelial adherence junctions; assay: Immunofluorescence staining of colon junctions (E-cadherin, ZO-1); type: in vivo, mouse; conditions: STZ-treated mice given the agent
Description: Colon samples were extensively washed and fixed and 4% paraformaldehyde. Samples were washed, paraffin-embedded and sectioned. Paraffin sections were de-paraffinized and antigen-retrieved in 10 mM sodium citrate, pH 6. Samples were incubated in PBS containing 20% (v/v) normal horse serum and 0.2% (v/v) Triton X-100 for 1 h; and then incubated over-night with rabbit anti-ZO-1 (Invitrogen 40-2200) primary antibody or rabbit anti E-cadherin (Cell Signaling 24E10). Sections were washed and incubated for 1 hour with alexa 488-conjugated donkey anti Rabbit antibody. Alternatively, sections were stained with Ki67 to indicate proliferating cells.

intestinal microbiota = assay: Taxonomic microbiota analysis (16S rDNA sequencing); type: in vivo, mouse; conditions: hyperglycemic (STZ-treated) mice, insulin treatment
Description: Frozen fecal samples were processed for DNA isolation using the MoBio PowerSoil kit according to the manufacturer's instructions. For the 16S rRNA gene PCR amplification, 1 ng of the purified fecal DNA was used for PCR amplification. Amplicons spanning the variable region V3/4 of the 16S rRNA gene were generated by using primers: Fwd 5′-[…]-3′ (SEQ ID NO: 1), Rev 5′-[…]-3′ (SEQ ID NO: 2). The reactions were subsequently pooled and cleaned (PCR clean kit, Promega), and the PCR products were then sequenced on an Illumina MiSeq with 500 bp paired-end reads. The reads were then processed using the QIIME analysis pipeline as described (55, 56). In brief, fasta quality files and a mapping file indicating the barcode sequence corresponding to each sample were used as inputs, reads were split by samples according to the barcode, taxonomical classification was performed using the RDP-classifier, and an OTU table was created. Closed-reference OTU mapping was employed using the Greengenes database. Rarefaction was used to exclude samples with insufficient count of reads per sample. Sequences sharing 97% nucleotide sequence identity in the 16S region were binned into operational taxonomic units (97% ID OTUs). For beta-diversity, unweighted UniFrac measurements were plotted according to the two principal coordinates based on 10,000 reads per sample. […]

## NCCc1c[nH]cn1 [histamine]
[1]; CaCo2 cells pretreated 24 hrs with disruptor, then regular culture medium for 24 hours
  recovery of the TJs after washout: nearly complete recovery of the TJs
[1]; CaCo2 cells, 24 hrs, LPS 300 ng/ml, Histamine 10 mM, putrescine 1 mM
  TJ structure after disruptor treatment: pronounced TJ disruption
[1]; Caco2 cells
  effect on tight junctions in metabolite screen: Disruption
[1]; Caco2 cells, known IBD mediators
  tight junction disruption phenotype (type 1 zipper-like, type 2 flower-like): type 2
[1]; Caco2 cells, 10 mM acetyl-proline, 1 mM putrescine, 10 mM histamine, 5 mM spermine
  tight junction morphology: distortion of tight junctions geometry; also recorded: distortion of tight junction morphology
[1]; Caco2 cells, type 2 disruptor plus LPS
  tight junction phenotype in combination with LPS: double effect
[2]; 10 mM acetyl-proline, 1 mM putrescine, 10 mM histamine, 5 mM spermine
  focal adhesions size: increase of focal adhesions size
Caco2 cells [3]
  forces applied to the substrate (cell contractility): increases cell contractility
Caco2 cells [4]
  apical actin-enriched structures: assembly of actin fibers in the same plane where tight junctions are located

## NCCS(=O)(=O)O [taurine]
[1]
  recovery of TJ structure on replacement of disruptors with stabilizer: full recovery of TJ structure
[1]; Caco2 cells
  effect on tight junctions in metabolite screen: Stabilization
  tight junction distortion caused by LPS: abolish tight junction distortion caused by LPS treatment alone
Citrobacter rodentium [5]
  disruptive effect of putrescine in mice with C. rodentium infection: restoration of the disruptive effect of putrescine

## NCCc1c[nH]c2ccccc12 [tryptamine]
[1]
  recovery of TJ structure on replacement of disruptors with stabilizer: full recovery of TJ structure
[1]; Caco2 cells
  effect on tight junctions in metabolite screen: Stabilization
  tight junction distortion caused by LPS: abolish tight junction distortion caused by LPS treatment alone
[1]; Caco2 cells, extract combined with 1 mM tryptamine or fecal extract from healthy animals
  disrupting activity of dysbiotic fecal extract: neutralized
[2]; 1 mM tryptamine, 10 mM L-homo-serine
  focal adhesions size vs control non treated cells: reduction in focal adhesions size
[2]; 1 mM tryptamine, 10 mM L-homo-serine, with LPS
  enlargement of focal adhesions caused by LPS: prevent enlargement focal adhesions caused by LPS treatment
Caco2 cells [3]
  forces applied to the substrate (cell contractility): cause cell relaxation

## insulin
Citrobacter rodentium [6]
  enhanced C. rodentium growth and pathogenic translocation / host defense against C. rodentium: prevented
[7]
  systemic dissemination of microbial products: prevented
[8]
  serum glucose levels: restored normoglycemic levels
[9]
  loss of adherence junction integrity: prevented
Intestinal microbiota
  taxonomic change in the configuration of the intestinal microbiota: corrected
